Consider 3 compounds from ChEMBL document CHEMBL1158696, “Bioactive asterosaponins from the starfish Culcita novaeguineae” (J Nat Prod, 2005).

One experiment relates to Bel-7402. The experiment is described as follows: Cytotoxicity against human Bel7402 cells after 72 hrs by SRB assay. Format: functional, cell-based. To be noted: Bel-7402, 72 h. In general terms: In SRB staining, fixed cells bind dye roughly in proportion to their protein.
Another experiment has as its system K562. The experiment is described as follows: Cytotoxicity against human K562 cells after 72 hrs by MTT assay. Format: functional, cell-based. The conditions noted are these: K562, 72 h. A general note: Formazan colour is commonly taken as a measure of viable cells.

SMILES strings stand for the structures.

Consider `CC(C)[C@H](C)[C@@H]1O[C@H]1[C@](C)(O)[C@H]1CC[C@H]2[C@@H]3C[C@H](O[C@@H]4O[C@H](CO)[C@@H](O)[C@H](O[C@@H]5O[C@H](C)[C@@H](O[C@@H]6OC[C@H](O)[C@H](O)[C@H]6O[C@@H]6O[C@H](C)[C@H](O)[C@H](O)[C@H]6O)[C@H](O)[C@H]5O[C@@H]5O[C@H](C)[C@H](O)[C@H](O)[C@H]5O)[C@H]4O)[C@H]4C[C@@H](OS(=O)(=O)[O-])CC[C@]4(C)C3=CC[C@]12C.[Na+]` [NOVAEGUINOSIDE II], for which the IC50 was 4.1 µg/mL with Bel-7402 and 4.9 µg/mL with K562.
For `CC(C)CC(=O)C[C@](C)(O)[C@H]1CC[C@H]2[C@@H]3C[C@H](O[C@@H]4O[C@H](C)[C@@H](O)[C@H](O[C@@H]5OC[C@@H](O[C@@H]6O[C@H](C)[C@H](O)[C@H](O)[C@H]6O[C@@H]6O[C@H](C)[C@H](O)[C@H](O)[C@H]6O)[C@H](O)[C@H]5O[C@@H]5O[C@H](C)[C@H](O)[C@H](O)[C@H]5O)[C@H]4O)[C@H]4C[C@@H](OS(=O)(=O)[O-])CC[C@]4(C)C3=CC[C@@]21C.[Na+]` [regularoside B] the same measures were 14.5 µg/mL and 17.4 µg/mL.
Consider `CC(C)[C@H](C)[C@@H]1O[C@H]1[C@](C)(O)[C@H]1CC[C@H]2[C@@H]3C[C@H](O[C@@H]4O[C@H](CO)[C@@H](O)[C@H](O[C@@H]5O[C@H](C)[C@@H](O[C@@H]6O[C@H](C)[C@H](O)[C@H](O)[C@H]6O[C@@H]6O[C@H](C)[C@H](O)[C@H](O)[C@H]6O)[C@H](O)[C@H]5O[C@@H]5O[C@H](C)[C@H](O)[C@H](O)[C@H]5O)[C@H]4O)[C@H]4C[C@@H](OS(=O)(=O)[O-])CC[C@]4(C)C3=CC[C@]12C.[Na+]` [NOVAEGUINOSIDE I], for which the IC50 in the experiment with Bel-7402 amounted to 9.2 µg/mL; with K562, 8.6 µg/mL.

For orientation: IC50 means the concentration at which inhibition is half-maximal. Low readings indicate higher potency, high ones lower potency.
